From patent publication US12187709B2 (Genentech, Inc., priority 2021, dated 2025)

Key:
Cbl-b = Cbl-b (Homo sapiens (Human), UniProt Q13191); experiment: Cbl-b LCK Ub TR-FRET assay (Cbl-b Lck HTRF); assay type: biochemical; conditions: for IC50: Cbl-b LCK Ub TR-FRET; for fold-selectivity (Cbl-b over C-cbl): ratio C-cbl Lck HTRF IC50 / Cbl-b Lck HTRF IC50
Method in brief: (§1)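 Signal is read once the detection mix has stood 20 min at ambient temperature. Curves are anchored by DMSO as maximum and by omission of LCK as minimum.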

c-Cbl = c-Cbl (Homo sapiens (Human), UniProt P22681); experiment: C-Cbl LCK Ub TR-FRET assay (C-cbl Lck HTRF); assay type: biochemical
Method in brief: as §1

[1] = molecular target: Human Cbl-b (residues 40-426) (Homo sapiens (Human), UniProt Q13191); experiment: Cbl-b SPR assay; assay type: binding; conditions: for Fold of selectivity: C-cbl SPR Kd vs Cbl-b SPR Kd; for Kd: SPR, 20° C.
Method in brief: (§2)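 Captured protein (1300-1500 RU for both isoforms) was probed in multi-cycle kinetics with 6 concentrations in 2-fold dilution, 60 s contact, 40 μl/min, dissociation 120-1200 s, double-referenced. Kinetic and affinity parameters came from a 1:1 binding fit. For slow off-rates, kd was set independently by a chaser-based method.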

c-Cbl (residues 47-435) = c-Cbl (residues 47-435) (Homo sapiens (Human), UniProt P22681); experiment: c-Cbl SPR assay; assay type: binding; conditions: 20° C.
Method in brief: as §2

Chain of Cbl-b (Q13191 40-426): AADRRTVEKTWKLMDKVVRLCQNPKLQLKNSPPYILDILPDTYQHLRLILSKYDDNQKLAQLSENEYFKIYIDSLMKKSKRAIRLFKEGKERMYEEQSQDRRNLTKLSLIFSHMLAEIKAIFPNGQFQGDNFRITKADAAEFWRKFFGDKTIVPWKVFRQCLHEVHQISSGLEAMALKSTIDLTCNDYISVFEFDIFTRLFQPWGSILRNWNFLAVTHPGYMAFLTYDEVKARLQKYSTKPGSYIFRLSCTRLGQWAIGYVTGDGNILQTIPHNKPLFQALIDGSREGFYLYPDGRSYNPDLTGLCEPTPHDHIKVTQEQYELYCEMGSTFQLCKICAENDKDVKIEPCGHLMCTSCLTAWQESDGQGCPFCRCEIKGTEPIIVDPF
Chain of Human Cbl-b (residues 40-426) (Q13191 40-426): as above
Chain of c-Cbl (P22681 47-435): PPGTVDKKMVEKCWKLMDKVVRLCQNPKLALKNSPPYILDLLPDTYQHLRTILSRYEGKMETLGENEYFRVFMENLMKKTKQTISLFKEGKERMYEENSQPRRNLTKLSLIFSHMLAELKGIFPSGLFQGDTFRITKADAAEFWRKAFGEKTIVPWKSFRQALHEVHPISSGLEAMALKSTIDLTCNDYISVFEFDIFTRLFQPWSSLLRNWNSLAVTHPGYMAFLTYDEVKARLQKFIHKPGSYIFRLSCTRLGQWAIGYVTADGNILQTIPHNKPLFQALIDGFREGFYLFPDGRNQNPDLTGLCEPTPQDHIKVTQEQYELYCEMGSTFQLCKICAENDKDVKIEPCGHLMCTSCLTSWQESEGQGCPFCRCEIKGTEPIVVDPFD
Chain of c-Cbl (residues 47-435) (P22681 47-435): as above

| IC50 (Cbl-b) | fold-selectivity (Cbl-b over C-cbl) (Cbl-b) | IC50 (c-Cbl) | Fold of selectivity [1] | Kd [1] | Kd (c-Cbl (residues 47-435)) | SMILES |
| --- | --- | --- | --- | --- | --- | --- |
| 12 nM | 1.1x | 14 nM | 2.6× | 2.2 nM | 5.8 nM | CNc1cc(N2Cc3c(cc(CNC4(C)CCC4)cc3C(F)(F)F)C2=O)cc([C@]2(c3nncn3C)C[C@@H](OC)C2)c1 [Compound 238, 2-(3-((1s,3s)-3-methoxy-1-(4-methyl-4H-1,2,4-triazol-3-yl)cyclobutyl)-5-(methylamino)phenyl)-6-(((1-methylcyclobutyl)amino)methyl)-4-(trifluoromethyl)isoindolin-1-one] |
| 13 nM | 1.0x | 13 nM | 4.4× | 1 nM | 4.4 nM | CNc1cc(N2Cc3c(cc(CNC4(C)CCC4)cc3C(F)(F)F)C2=O)cc([C@]2(c3nncn3C)C[C@H](OC)C2)c1 [Compound 239, 2-(3-((1r,3r)-3-methoxy-1-(4-methyl-4H-1,2,4-triazol-3-yl)cyclobutyl)-5-(methylamino)phenyl)-6-(((1-methylcyclobutyl)amino)methyl)-4-(trifluoromethyl)isoindolin-1-one] |
| 14 nM | 3.7x | 51 nM | 12× | 2.3 nM | 27 nM | C=CCNc1cc(N2Cc3c(cc(CNC4(C)CCC4)cc3C(F)(F)F)C2=O)cc([C@]2(c3nncn3C)C[C@@H](OC)C2)c1 [Compound 240, 2-(3-(allylamino)-5-((1s,3s)-3-methoxy-1-(4-methyl-4H-1,2,4-triazol-3-yl)cyclobutyl)phenyl)-6-(((1-methylcyclobutyl)amino)methyl)-4-(trifluoromethyl)isoindolin-1-one] |
| 130 nM | 4.0x | 530 nM | 8.6× | 34 nM | 270 nM | CO[C@H]1C[C@@](c2cc(OC3COC3)cc(N3Cc4c(cc(CNC5(C)CCC5)cc4C(F)(F)F)C3=O)c2)(c2nncn2C)C1 [Compound 241, 2-(3-((1s,3s)-3-methoxy-1-(4-methyl-4H-1,2,4-triazol-3-yl)cyclobutyl)-5-(oxetan-3-yloxy)phenyl)-6-(((1-methylcyclobutyl)amino)methyl)-4-(trifluoromethyl)isoindolin-1-one] |
| 56 nM | 4.0x | 220 nM | 5.5× | 23 nM | 130 nM | CO[C@H]1C[C@](c2cc(OC3COC3)cc(N3Cc4c(cc(CNC5(C)CCC5)cc4C(F)(F)F)C3=O)c2)(c2nncn2C)C1 [Compound 242, 2-(3-((1r,3r)-3-methoxy-1-(4-methyl-4H-1,2,4-triazol-3-yl)cyclobutyl)-5-(oxetan-3-yloxy)phenyl)-6-(((1-methylcyclobutyl)amino)methyl)-4-(trifluoromethyl)isoindolin-1-one] |
| 64 nM | 4.4x | 290 nM | 14× | 11 nM | 150 nM | CO[C@H]1C[C@@](c2cc(NC3COC3)cc(N3Cc4c(cc(CNC5(C)CCC5)cc4C(F)(F)F)C3=O)c2)(c2nncn2C)C1 [Compound 243, 2-(3-((1s,3s)-3-methoxy-1-(4-methyl-4H-1,2,4-triazol-3-yl)cyclobutyl)-5-(oxetan-3-ylamino)phenyl)-6-(((1-methylcyclobutyl)amino)methyl)-4-(trifluoromethyl)isoindolin-1-one] |
| 8.6 nM | 1.7x | 15 nM | 2.1× | 4.2 nM | 8.5 nM | Cn1cnnc1[C@]1(c2cccc(N3Cc4c(Cl)cc(CNC5(C)CCC5)cc4C3=O)c2)C[C@H](F)C1 [Compound 246, 4-chloro-2-(3-((1s,3s)-3-fluoro-1-(4-methyl-4H-1,2,4-triazol-3-yl)cyclobutyl)phenyl)-6-(((1-methylcyclobutyl)amino)methyl)isoindolin-1-one] |
| 9.8 nM | 1.9x | 18 nM | 5.5× | 2.2 nM | 12 nM | Cn1cnnc1[C@]1(c2cccc(N3Cc4c(cc(CNC5(C)CCC5)cc4C(F)F)C3=O)c2)C[C@H](F)C1 [Compound 247, 4-(difluoromethyl)-2-(3-((1s,3s)-3-fluoro-1-(4-methyl-4H-1,2,4-triazol-3-yl)cyclobutyl)phenyl)-6-(((1-methylcyclobutyl)amino)methyl)isoindolin-1-one] |
| 100 nM | 5.0x | 500 nM | 6.9× | 49 nM | 300 nM | Cn1cnnc1[C@H](CC1CCCC1)c1cccc(N2Cc3c(cc(CNC4(C)CCC4)cc3C(F)(F)F)C2=O)c1 [Compound 249, (R)-2-(3-(2-cyclopentyl-1-(4-methyl-4H-1,2,4-triazol-3-yl)ethyl)phenyl)-6-(((1-methylcyclobutyl)amino)methyl)-4-(trifluoromethyl)isoindolin-1-one] |
| 210 nM | 6.5x | 1400 nM | 14× | 180 nM | 2500 nM | Cn1cnnc1[C@@H](c1cccc(N2Cc3c(cc(CNC4(C)CCC4)cc3C(F)(F)F)C2=O)c1)C1CCCC1 [Compound 256, (R)-2-(3-(cyclopentyl(4-methyl-4H-1,2,4-triazol-3-yl)methyl)phenyl)-6-(((1-methylcyclobutyl)amino)methyl)-4-(trifluoromethyl)isoindolin-1-one] |

Further lines, the compound ahead of its results:

| SMILES | IC50 (Cbl-b) | fold-selectivity (Cbl-b over C-cbl) (Cbl-b) | IC50 (c-Cbl) | Fold of selectivity [1] | Kd [1] | Kd (c-Cbl (residues 47-435)) |
| --- | --- | --- | --- | --- | --- | --- |
| COC1CC2(C1)CC(c1cccc(N3Cc4c(cc(CNC5(C)CCC5)cc4C(F)(F)F)C3=O)c1)(c1nncn1C)C2 (stereo not drawn) [Compound 229, 2-(3-(6-methoxy-2-(4-methyl-4H-1,2,4-triazol-3-yl)spiro[3.3]heptan-2-yl)phenyl)-6-(((1-methylcyclobutyl)amino)methyl)-4-(trifluoromethyl)isoindolin-1-one] | 230 nM | 5.9x | 1400 nM | 7.0× | 110 nM | 760 nM |
| CO[C@H]1C[C@](c2cc(C)cc(N3Cc4c(cc(CNC5(C)CCC5)cc4C(F)(F)F)C3=O)c2)(c2nncn2C)C1 [Compound 230, 2-(3-((1r,3r)-3-methoxy-1-(4-methyl-4H-1,2,4-triazol-3-yl)cyclobutyl)-5-methylphenyl)-6-(((1-methylcyclobutyl)amino)methyl)-4-(trifluoromethyl)isoindolin-1-one] | 190 nM | 1.5x | 290 nM | 2.3× | 75 nM | 170 nM |
| CO[C@H]1C[C@@](c2cc(NC3CC3)cc(N3Cc4c(cc(CNC5(C)CCC5)cc4C(F)(F)F)C3=O)c2)(c2nncn2C)C1 [Compound 231, 2-(3-(cyclopropylamino)-5-((1s,3s)-3-methoxy-1-(4-methyl-4H-1,2,4-triazol-3-yl)cyclobutyl)phenyl)-6-(((1-methylcyclobutyl)amino)methyl)-4-(trifluoromethyl)isoindolin-1-one] | 11 nM | 1.5x | 17 nM | 5.4× | 1.5 nM | 8.1 nM |
| C=CCNc1cc(N2Cc3c(cc(CNC4(C)CCC4)cc3C(F)(F)F)C2=O)cc([C@]2(c3nncn3C)C[C@H](OC)C2)c1 [Compound 232, 2-(3-(allylamino)-5-((1r,3r)-3-methoxy-1-(4-methyl-4H-1,2,4-triazol-3-yl)cyclobutyl)phenyl)-6-(((1-methylcyclobutyl)amino)methyl)-4-(trifluoromethyl)isoindolin-1-one] | 13 nM | 2.6x | 35 nM | 9.2× | 1.4 nM | 13 nM |
| CO[C@H]1C[C@](c2cc(NC3COC3)cc(N3Cc4c(cc(CNC5(C)CCC5)cc4C(F)(F)F)C3=O)c2)(c2nncn2C)C1 [Compound 234, 2-(3-((1r,3r)-3-methoxy-1-(4-methyl-4H-1,2,4-triazol-3-yl)cyclobutyl)-5-(oxetan-3-ylamino)phenyl)-6-(((1-methylcyclobutyl)amino)methyl)-4-(trifluoromethyl)isoindolin-1-one] | 25 nM | 5.6x | 140 nM | 10× | 7.4 nM | 76 nM |
| CCc1cc(N2Cc3c(cc(CNC4(C)CCC4)cc3C(F)(F)F)C2=O)cc([C@]2(c3nncn3C)C[C@@H](OC)C2)c1 [Compound 235, 2-(3-ethyl-5-((1s,3s)-3-methoxy-1-(4-methyl-4H-1,2,4-triazol-3-yl)cyclobutyl)phenyl)-6-(((1-methylcyclobutyl)amino)methyl)-4-(trifluoromethyl)isoindolin-1-one] | 78 nM | 1.4x | 110 nM | 2.9× | 36 nM | 110 nM |
| CCc1cc(N2Cc3c(cc(CNC4(C)CCC4)cc3C(F)(F)F)C2=O)cc([C@]2(c3nncn3C)C[C@H](OC)C2)c1 [Compound 236, 2-(3-ethyl-5-((1r,3r)-3-methoxy-1-(4-methyl-4H-1,2,4-triazol-3-yl)cyclobutyl)phenyl)-6-(((1-methylcyclobutyl)amino)methyl)-4-(trifluoromethyl)isoindolin-1-one] | 38 nM | 1.7x | 65 nM | 2.5× | 19 nM | 47 nM |
